SMILES strings stand for the structures. Entries after “also recorded” stand apart in the source; their conditions may differ. Where two headings read alike, the source gives them in different places.

As a reminder, the EC50 is the concentration at which the effect is half-maximal.

The test system of one assay is MM1S cells. Kind of assay: Cell viability assay (ATPlite), MM1S. The class given is cell-based, human. Particulars: for EC50: cell viability, three days, ATPlite, NA: inactive under assay conditions. The method in brief: (§1)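 Cells seeded at 60,000 cells/mL and dosed immediately by pin transfer in 10-point quadruplicate dose response from DMSO stocks. After three days at 37 °C, viability was read by ATPlite luminescence after 15 min at room temperature.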
A general note: In ATP-based viability assays light output follows the ATP content of the culture.

Assay [1] concerns the target T1, c-Myc/Max/Ebox DNA (Homo sapiens, UniProt P01106). Put plainly: c-Myc/Max/Ebox DNA AlphaScreen assay. The class given is binding. Also noted: An exemplary assay uses full-length human c-Myc and Max proteins; his6 (cleaved yes); made in house. The method in brief:
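Free c-Myc (25 nM), made by thrombin removal of the His6 tag, is pre-mixed with biotin-Ebox DNA (10 nM) and Ni acceptor beads before compound addition, then His6-Max (1.25 nM) and streptavidin donor beads are added. Buffer is HEPES pH 8.0 with BSA, Tween20, glycogen and DTT. Read after 2 h, excitation 680 nm, emission 520–620 nm.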
On the technique in general: Alpha assays give light when donor and acceptor beads are brought close together.

The next assay has as its system H2171 cells. Put plainly: Cell viability assay (ATPlite), H2171. The format is cell-based, human. The following applies: for EC50: cell viability, three days, ATPlite, NA: inactive under assay conditions. The method in brief:
as §1

In the next assay the test system is Jurkat cells. Put plainly: Cell viability assay (ATPlite), Jurkat. The class given is cell-based, human. The following applies: Homo sapiens, Jurkat; class symbols; NA: not active under assay conditions. As to the method:
This assay was used for the H2171 and MM1S cell data shown in Table 2, and for the Jurkat (an immortalized line of human T lymphocyte cells), Ly1 (OCI-Ly1 human non-Hodgkin lymphoma cell line), Ly4 (OCI-Ly4 human non-Hodgkin lymphoma cell line), H2172 (NCI-H2172 human non-small cell lung cancer cell line), and CA-46 (a human Burkitt's lymphoma cell line) cell data shown in Table 3 and FIG. 12. Cells were counted and adjusted to 60,000 cells/mL. Using a Biotek EL406, 50 μL of cells are media were distributed into 384 well white plates from Thermo. Immediately after plating, compound in DMSO was distributed to plates. For large plate sets, cells were returned to 37° C. incubator while not in use.
Compounds were added to plates using a 100 nL 384 well pin transfer manifold on a Janus workstation. Stocks were arrayed in 10 point quadruplicate dose response in DMSO stock in 384 well Greiner compound plates. After addition of compound, plates were incubated for three days in a 37° C. incubator.
Cell viability was read out using ATPlite from Perkin Elmer. Plates were removed from the incubator and brought to room temperature prior to use. Lyophilized powder was resuspended in lysis buffer and diluted 1:2 with DI water. 25 μL of this solution was added to each well using the Biotek liquid handler. Plates were sealed with adherent aluminum seals prior to vortexing and spinning down at 1000 g for 1 minute. Plates were incubated for 15 minutes at room temperature before signal was read on an Envision Plate Reader.

The target of a further assay is T2, c-Myc (Homo sapiens, UniProt P01106).
T2 construct: c-Myc genomic occupancy in H2171 cells treated with DMSO, Compound 63 (100 μM) or CC34301 (100 μM); endogenous in cells; host or cells: H2171
Kind of assay: c-Myc chromatin immunoprecipitation assay in H2171 cells. The class given is cell-based. Particulars: 100 μM, 4 hours. On the procedure:
FIG. 6 depicts a c-Myc chromatin immunoprecipitation assay to investigate c-Myc genomic occupancy in H2171 cells treated with DMSO, Compound 63 (100 μM) or CC34301 (100 μM) for 4 hours. Standard chromatin immunoprecipitation procedures were followed using an antibody specific to c-Myc (Santa Cruz, catalogue number sc-764). Quantitative PCR analysis was performed on four c-Myc binding sites (Npm1, Mat2a, Hnrnpa2b1, and Rp123a) and one non-binding site (Neg region) and normalized to a background region to determine the fold enrichment over background.

The target of assay [2] is T1, c-Myc/Max/Ebox DNA. Kind of assay: Gelshift assay, c-Myc/Max/Ebox DNA complex formation. The format is binding. As to the method: FIG. 5 describes validation of Compound 63 activity using an orthogonal biochemical assay. […] Decreasing amounts of 63 was added to purified c-Myc, Max and biotinylated Ebox DNA. Biotinylated Ebox DNA complexed with protein (either c-Myc/Max or Max/Max) or free (bottom band) was assayed using a 6% retardation gel, transferred to a membrane and detected using straptavidin-HRP. […]
(§2) AlphaScreen hits can be validated using orthogonal biochemical assays such as a gelshift assay (also called an electrophoretic mobility shift assay) with purified components or cellular lysates. FIG. 5 (left) illustrates how the AlphaScreen hit 63 was validated using a gelshift assay with purified c-Myc, Max and Ebox DNA. […] Compounds and analogs were then examined for potency and selectivity against structurally similar transcription factor:DNA complexes, such as Max/Max/Ebox DNA and MITF/MITF/Ebox DNA. Data in FIG. 9 show how analogs can be tested for potency against structurally similar transcription factors and how medicinal chemistry optimization can drive potency and selectivity against different transcription factor:DNA complexes. […] The selectivity among structurally similar transcription factors can also provide insights into compound mechanism of action. […] Cellular assays can compliment the biochemical analyses to measure the cellular potency of compounds to induce cellular phenotypes expected as a result of loss of transcription factor function. This includes gene expression analysis, chromatin immunoprecipitation (ChIP) analysis, cellular proliferation analysis and cell state analysis. Gene expression analysis can be performed using qRT-PCR, Nanostring technology, microarray technology, or RNA-seq technology to study transcript changes following treatment with compound. ChIP analysis can be performed on the factor of interest to study if compound treatment alters its genomic occupancy. Cellular proliferation and cell state analysis can indicate if the compound alters cell cycle progression or cellular identity. Thus, the approach using biochemical and cellular assays with large chemical libraries or focused libraries of hits identified in high throughput screens can serve as a platform to develop inhibitors of transcription factor function.

For assay [3], the system named is HL-60 promyelocytic leukemia cells. Put plainly: HL-60 differentiation (qRT-PCR, FACS). The class given is cell-based, human. Particulars: HL-60 cells. As to the method:
FIG. 7 depicts the assessment of on-target activity versus general toxicity. HL-60 promyelocytic leukemia cells express high levels of c-Myc to maintain a proliferative and undifferentiated cell state. Loss of c-Myc function results in loss of cellular proliferation and induction of cellular differentiation. HL-60 cells were treated with DMSO, 64 (12.5 μM or 25 μM), or 151 (25 μM) for four days.

Another assay addresses T3, MITF/MITF/Ebox DNA (Homo sapiens, UniProt O75030).
T3 sequence (O75030 1-526): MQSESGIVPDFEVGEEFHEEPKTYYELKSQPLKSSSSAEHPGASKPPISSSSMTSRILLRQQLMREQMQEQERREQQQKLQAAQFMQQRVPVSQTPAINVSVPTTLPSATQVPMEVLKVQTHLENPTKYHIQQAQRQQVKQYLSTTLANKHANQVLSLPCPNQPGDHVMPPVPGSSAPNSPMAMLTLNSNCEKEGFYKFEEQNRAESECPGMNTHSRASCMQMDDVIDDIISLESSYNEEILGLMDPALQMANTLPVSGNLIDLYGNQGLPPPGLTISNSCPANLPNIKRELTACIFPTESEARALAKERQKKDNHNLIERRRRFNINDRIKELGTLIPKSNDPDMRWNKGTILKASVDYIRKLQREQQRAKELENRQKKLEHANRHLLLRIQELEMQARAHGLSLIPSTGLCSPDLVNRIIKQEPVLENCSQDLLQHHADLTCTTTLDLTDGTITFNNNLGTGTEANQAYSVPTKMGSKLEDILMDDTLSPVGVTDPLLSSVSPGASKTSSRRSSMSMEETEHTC
Put plainly: Gelshift assay, MITF/MITF/Ebox DNA complex formation. The format is binding. The following applies: relative to DMSO at 2.5 µM (FIG. 9). On the procedure: (§3) Compounds tested at 2.5 μM for their inhibitory activity against c-Myc/Max/Ebox DNA, Max/Max/Ebox DNA and MITF/MITF/Ebox DNA complex formation using gelshift assays.
as §2

The next assay addresses Max/Max/Ebox DNA (Homo sapiens, UniProt P61244). Kind of assay: Gelshift assay, Max/Max/Ebox DNA complex formation. Particulars: relative to DMSO at 2.5 µM (FIG. 9). The class given is binding. On the procedure: as §3
as §2, with “Gene expression analysis can be performed using qRT-PCR, Nanostring technology, microarray technology, or RNA-seq technology to study transcript changes following treatment with compound. ChIP analysis can be performed on the factor of interest to study if compound treatment alters its genomic occupancy. Cellular proliferation and cell state analysis can indicate if the compound alters cell cycle progression or cellular identity. Thus, the approach using biochemical and cellular assays with large chemical libraries or focused libraries of hits identified in high throughput screens can serve as a platform to develop inhibitors of transcription factor function.” left out

The mark [4] stands for this setting: class symbols, NA: not active under assay conditions, read-out: Myc/Max IC50.
The mark [5] stands for this setting: c-Myc/Max/Ebox DNA AlphaScreen, NA: inactive under assay conditions, read-out: Biochemical IC50.
Setting [6] is: relative to DMSO at 2.5 mM (FIG. 9).

T2 sequence (P01106 whole entry): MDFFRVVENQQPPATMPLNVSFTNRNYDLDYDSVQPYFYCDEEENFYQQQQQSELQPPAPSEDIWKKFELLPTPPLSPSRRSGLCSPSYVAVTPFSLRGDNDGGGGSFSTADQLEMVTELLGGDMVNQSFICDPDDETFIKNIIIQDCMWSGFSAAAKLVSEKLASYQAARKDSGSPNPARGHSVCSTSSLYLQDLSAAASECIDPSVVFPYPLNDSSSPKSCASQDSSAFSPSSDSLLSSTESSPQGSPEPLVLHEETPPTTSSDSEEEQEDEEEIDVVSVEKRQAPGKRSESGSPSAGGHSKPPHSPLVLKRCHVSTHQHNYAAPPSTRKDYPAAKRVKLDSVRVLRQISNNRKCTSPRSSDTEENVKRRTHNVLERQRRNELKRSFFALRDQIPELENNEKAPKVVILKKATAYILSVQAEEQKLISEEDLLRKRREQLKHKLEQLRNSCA
T1 sequence (P01106 16-454): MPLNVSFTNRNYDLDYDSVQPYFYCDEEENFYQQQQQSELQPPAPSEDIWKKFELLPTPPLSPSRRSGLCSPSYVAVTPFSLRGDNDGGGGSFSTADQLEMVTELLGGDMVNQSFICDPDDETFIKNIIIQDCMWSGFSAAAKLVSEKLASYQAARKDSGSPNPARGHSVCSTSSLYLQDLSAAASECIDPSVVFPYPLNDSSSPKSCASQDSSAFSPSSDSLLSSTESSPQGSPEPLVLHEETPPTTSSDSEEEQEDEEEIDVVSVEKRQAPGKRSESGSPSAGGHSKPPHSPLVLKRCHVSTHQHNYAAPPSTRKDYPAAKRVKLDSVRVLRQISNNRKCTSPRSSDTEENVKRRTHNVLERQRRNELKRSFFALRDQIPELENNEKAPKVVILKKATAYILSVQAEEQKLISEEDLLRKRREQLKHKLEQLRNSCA
Sequence of Max/Max/Ebox DNA (P61244 whole entry): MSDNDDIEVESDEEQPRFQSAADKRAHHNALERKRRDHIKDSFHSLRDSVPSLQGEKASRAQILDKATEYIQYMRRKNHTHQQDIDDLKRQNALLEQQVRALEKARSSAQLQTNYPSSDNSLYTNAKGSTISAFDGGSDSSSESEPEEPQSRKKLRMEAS

As for `Cc1ccc(C)n1-c1ccccc1C(=O)O` [Compound 1], the EC50 with MM1S cells is 132 µM; in the assay with H2171 cells, 93.5 µM; in the assay on Jurkat cells, ≥ 100 µM. The IC50 at c-Myc/Max/Ebox DNA [1] (setting [4]) lay within 10 to 100 µM.
With `Cc1ccc(C)n1-c1ccccc1C(=O)O` [Compound 63, 2-(2,5-dimethylpyrrolyl)benzoic acid], in the assay on MM1S cells, a half-maximal effect (EC50) was put at 322 µM. Besides, the IC50 on c-Myc/Max/Ebox DNA [1] (setting [5]) was determined as 24.2 µM. Moreover, it took 96.9 µM to reach a half-maximal effect with H2171 cells (Homo sapiens, NCI-H2171, 72 h) (EC50). In addition, on c-Myc, the Max genomic occupancy entry is given as “largely unchanged” and the c-Myc protein levels entry is listed as “unchanged”. The “c-Myc occupancy at binding sites (Npm1, Mat2a, Hnrnpa2b1, Rp123a)” value at c-Myc (compared to DMSO or CC34301) is recorded as “reduced c-Myc occupancy”. Moreover, the “selectivity c-Myc/Max versus Max/Max” value at c-Myc/Max/Ebox DNA [2] (at tested doses (FIG. 5)) was “selectivity towards c-Myc/Max”. Moreover, on c-Myc/Max/Ebox DNA [2] (decreasing amounts of compound (FIG. 5)), the “c-Myc/Max/Ebox DNA complex formation” value is “reduced c-Myc/Max/Ebox DNA complex formation in a dose-dependent manner; also recorded: inhibits c-Myc/Max/Ebox DNA complex formation (top band) in a dose dependent manner”.
Consider `CC(=O)OCOC(=O)c1ccccc1-n1c(C)ccc1C` [Compound 64], for which the EC50 was 52.3 µM in the assay with MM1S cells (Homo sapiens, MM1.S, 72 h); 29.9 µM with H2171 cells (Homo sapiens, NCI-H2171, 72 h); 10 to 100 µM with Jurkat cells. Also, the “cellular activity/potency in cellular proliferation assay” value in the assay with MM1S cells (MM1.S, prodrug relative to free acid (FIG. 3, FIG. 4)) is reported as “increased cellular activity”. Moreover, the IC50 at c-Myc/Max/Ebox DNA [1] (setting [5]) was 155 µM; on c-Myc/Max/Ebox DNA [1] (setting [4]), ≥ 100 µM. Moreover, the “cellular activity in cellular proliferation assay” value in the assay on H2171 cells (H2171, relative to free acid Compound 63 (FIG. 3)) is recorded as “increased cellular activity”. Also, the “expression of differentiation markers (qRT-PCR)” value in [3] (12.5 μM or 25 μM, four days) is “induces the expression of three differentiation markers (CD14, CD11c, and CCL4)”. In addition, in assay [3] (4 days), the “differentiation marker CD11c (FACS)” value is “express the differentiation marker CD11c”.
Regarding `Cc1ccc(C)n1-c1cc(C(=O)N/N=C/c2ccc(O)c(O)c2O)ccc1C(=O)O` [Compound 79], the IC50 on c-Myc/Max/Ebox DNA [1] (setting [5]) stood at 0.531 µM. The “MITF/MITF/Ebox DNA complex formation” value at MITF/MITF/Ebox DNA is “disrupted”. The “c-Myc/Max/Ebox DNA complex formation” value on c-Myc/Max/Ebox DNA [2] (setting [6]) was “disrupted”.
In the case of `Cc1ncc(CO)c(/C=N/NC(=O)c2ccc(C(=O)O)c(-n3c(C)ccc3C)c2)c1O` [Compound 80], at c-Myc/Max/Ebox DNA [1] (setting [4]), the IC50 was in the range of 1 to 10 µM. Further, the concentration for a half-maximal effect (EC50) with H2171 cells (Homo sapiens, NCI-H2171, 72 h) was 400 µM; in the assay with Jurkat cells, ≥ 100 µM.
`Cc1ccc(C)n1-c1cc(C(=O)N/N=C/c2ccc(-c3nnn[nH]3)cc2)ccc1C(=O)O` [Compound 92] yielded an EC50 in the assay on MM1S cells (Homo sapiens, MM1.S, 72 h) of 731 µM. The IC50 on c-Myc/Max/Ebox DNA [1] (setting [5]) was found to be 1.66 µM. The “MITF/MITF/Ebox DNA complex formation” value at MITF/MITF/Ebox DNA was “most potent of the compounds tested”.
With `Cc1ccc(C)n1-c1cc(C(=O)N/N=C/c2cccc(C(=O)O)c2)ccc1C(=O)O` [Compound 101, (E)-4-(2-(3-carboxybenzylidene)hydrazinecarbonyl)-2-(2,5-dimethyl-1H-pyrrol-1-yl)benzoic acid], the biochemical activity result on c-Myc/Max/Ebox DNA [1] (FIG. 4) is “increased biochemical activity”. Besides, the IC50 at c-Myc/Max/Ebox DNA [1] (setting [4]) lay within 1 to 10 µM. Further, the “MITF/MITF/Ebox DNA complex formation” value on MITF/MITF/Ebox DNA is recorded as “potently disrupted”. Besides, the “Max/Max/Ebox DNA complex formation” value on Max/Max/Ebox DNA is “potently disrupted”. In the assay on Jurkat cells, this compound returned an EC50 of 10 to 100 µM. At c-Myc/Max/Ebox DNA [2] (setting [6]), the “c-Myc/Max/Ebox DNA complex formation” value is “potently disrupted”.
